Experimental data from PubChem BioAssay (NCI).
Where “and” joins values, the source holds several entries; their conditions need not be identical. Equal values may be shown once.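 Tested at 5 concentrations; 48 h exposure; 96-well plates; endpoints linearly interpolated, else capped at highest concentration. GI50 = concentration required for 50% inhibition of growth. TGI is the concentration that stops growth completely.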

Experiments:
Test in all cases: NCI-60 cell line screen, 48 h
[1] = test system: EKVX NSCLC
[2] = test system: HCC-2998 colon
[3] = test system: SK-MEL-5 melanoma
[4] = test system: OVCAR-3 ovarian
[5] = test system: 786-0 renal
[6] = test system: UACC-257 melanoma
[7] = test system: TK-10 renal
[8] = test system: IGROV1 ovarian
[9] = test system: SF-268 CNS
[10] = test system: HCT-15 colon

Fc1ccc2[nH]cc(Cc3c[nH]c4ccc(F)cc34)c2c1
GI50 [1]: 17.6 µM | TGI [1]: 41.8 µM | GI50 [2]: 13.3 µM | TGI [2]: 30.3 µM | GI50 [3]: 17.5 µM | TGI [3]: 35.3 µM | GI50 [4]: 19.5 µM | TGI [4]: 52.8 µM | GI50 [5]: 17.1 µM | TGI [5]: 35.6 µM | GI50 [6]: 15.7 µM | TGI [6]: 30.8 µM | GI50 [7]: 28.9 µM | TGI [7]: 68.6 µM | GI50 [8]: 16.9 µM | TGI [8]: 41.6 µM | GI50 [9]: 17.5 µM | TGI [9]: 77.6 µM | GI50 [10]: 17.5 µM | TGI [10]: 55.6 µM

CCc1ccc(NCc2cc(OC)c(OC)c(OC)c2)cc1
TGI [1]: > 96.1 µM and 84.3 µM | TGI [2]: 11 µM and 12.1 µM | GI50 [3]: 0.297 µM and 0.104 µM | TGI [3]: 7.84 µM and 14.7 µM | GI50 [4]: 0.348 µM | TGI [4]: 1.32 µM | GI50 [5]: 0.369 µM and 0.77 µM | TGI [5]: 17.3 µM and > 38.5 µM | TGI [6]: > 100 µM | GI50 [7]: 24.6 µM and 10.7 µM | TGI [7]: > 100 µM | GI50 [8]: 1.32 µM and 0.615 µM | TGI [8]: > 66.2 µM | GI50 [9]: 0.862 µM and 1.78 µM | TGI [9]: 43.6 µM and 64.8 µM | TGI [10]: 42.2 µM and 20.4 µM

CC(C)(C(=O)NN)c1ccccc1
TGI [1]: > 100 µM | TGI [2]: > 100 µM | TGI [3]: > 100 µM | TGI [4]: > 100 µM | TGI [5]: > 100 µM | TGI [6]: > 100 µM | TGI [7]: > 100 µM | TGI [8]: > 100 µM | TGI [9]: > 100 µM | TGI [10]: > 100 µM

O=C(CCl)c1ccc([N+](=O)[O-])o1
GI50 [1]: 10.7 µM | TGI [1]: 32.6 µM | GI50 [2]: 5.36 µM | TGI [2]: 11.2 µM | GI50 [3]: 4.11 µM | TGI [3]: 15.7 µM | GI50 [4]: 1.25 µM | TGI [4]: 2.58 µM | GI50 [5]: 3.32 µM | TGI [5]: 10.9 µM | GI50 [6]: 1.83 µM | TGI [6]: 3.93 µM | GI50 [7]: 1.79 µM | TGI [7]: 3.49 µM | GI50 [8]: 5.5 µM | TGI [8]: 14 µM | GI50 [9]: 2.54 µM | TGI [9]: 6.8 µM | GI50 [10]: 1.61 µM | TGI [10]: 3.22 µM

COc1cc2nc(Cl)nc(Nc3cccc(C(=O)/C=C/c4ccccc4)c3)c2cc1OC
GI50 [1]: > 33.7 µM | TGI [1]: > 100 µM | GI50 [2]: 2.54 µM | TGI [2]: 5.56 µM | GI50 [3]: > 22.8 µM | TGI [3]: > 100 µM | GI50 [4]: 3.75 µM | TGI [4]: 31.3 µM | GI50 [5]: 3.05 µM | TGI [5]: 15 µM | GI50 [6]: > 31.2 µM | TGI [6]: > 100 µM | GI50 [7]: 4.19 µM | TGI [7]: 20 µM | GI50 [8]: 4.45 µM | TGI [8]: 42.9 µM | GI50 [9]: 4.99 µM | TGI [9]: 81.4 µM | GI50 [10]: 2.88 µM | TGI [10]: > 100 µM

O=C(CCN1CCCC1)Nc1ccc2c(NCc3ccc(F)cc3)c3ccccc3nc2c1
GI50 [1]: 0.58 µM | TGI [1]: 2.3 µM | GI50 [2]: 0.485 µM | TGI [2]: 2.03 µM | GI50 [3]: 1.44 µM | TGI [3]: 2.76 µM | GI50 [4]: 0.488 µM | TGI [4]: 1.92 µM | GI50 [5]: 0.55 µM | TGI [5]: 1.94 µM | GI50 [6]: 1.74 µM | TGI [6]: 3.54 µM | GI50 [7]: 1.04 µM | TGI [7]: 2.93 µM | GI50 [8]: 0.363 µM | TGI [8]: 1.5 µM | GI50 [9]: 0.465 µM | TGI [9]: 1.91 µM | GI50 [10]: 1.53 µM | TGI [10]: 4.07 µM

N#CSc1ncnc2nc[nH]c12
GI50 [1]: 41.8 µM | TGI [1]: > 100 µM | GI50 [2]: 3.9 µM | TGI [2]: > 100 µM | GI50 [3]: 15.2 µM | TGI [3]: > 100 µM | GI50 [4]: 1.66 µM | TGI [4]: > 31.6 µM | GI50 [5]: 3.53 µM | TGI [5]: > 100 µM | GI50 [6]: 26.2 µM | TGI [6]: > 100 µM | GI50 [7]: 4.17 µM | TGI [7]: > 100 µM | GI50 [8]: 35.1 µM | TGI [8]: > 100 µM | GI50 [9]: 4.24 µM | TGI [9]: > 41.1 µM | GI50 [10]: 8.82 µM | TGI [10]: > 100 µM
